Measurements: ChEMBL document CHEMBL1201862, “PubChem BioAssay data set” (2004)
Active and inactive are the calls of the source.

Tests used:
[1] = biological target: T1, Tyrosine-protein phosphatase non-receptor type 22 (Homo sapiens, UniProt Q9Y2R2); experiment: SAR LYP1 Fluorescent Assay using pCAP substrate for In Vitro dose response studies - Set 2. [Related pubchem assays (depositor defined):AID1779, AID1784, AID2135, AID449727]; assay type: functional
T1 sequence (Q9Y2R2 whole entry): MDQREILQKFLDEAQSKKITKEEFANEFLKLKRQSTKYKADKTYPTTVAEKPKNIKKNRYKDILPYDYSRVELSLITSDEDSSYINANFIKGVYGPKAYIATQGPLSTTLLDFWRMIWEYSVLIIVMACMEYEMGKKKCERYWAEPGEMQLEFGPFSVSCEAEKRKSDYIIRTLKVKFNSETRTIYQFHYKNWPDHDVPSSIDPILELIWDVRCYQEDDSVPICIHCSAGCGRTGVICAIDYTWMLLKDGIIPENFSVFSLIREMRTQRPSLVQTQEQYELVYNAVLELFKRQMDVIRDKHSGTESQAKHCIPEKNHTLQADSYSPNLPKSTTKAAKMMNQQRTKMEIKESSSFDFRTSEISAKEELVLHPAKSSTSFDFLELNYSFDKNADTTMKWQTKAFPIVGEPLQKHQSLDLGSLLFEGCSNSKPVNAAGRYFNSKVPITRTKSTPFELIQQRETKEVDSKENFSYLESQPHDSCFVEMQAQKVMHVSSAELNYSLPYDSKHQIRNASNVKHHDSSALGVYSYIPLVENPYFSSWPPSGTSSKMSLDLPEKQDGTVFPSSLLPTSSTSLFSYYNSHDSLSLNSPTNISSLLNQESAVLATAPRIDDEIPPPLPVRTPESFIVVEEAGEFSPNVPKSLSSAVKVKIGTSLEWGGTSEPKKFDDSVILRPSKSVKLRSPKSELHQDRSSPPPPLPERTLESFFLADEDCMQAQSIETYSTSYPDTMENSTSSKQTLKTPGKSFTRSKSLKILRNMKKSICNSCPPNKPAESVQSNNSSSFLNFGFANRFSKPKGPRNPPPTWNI

[2] = biological target: Tyrosine-protein phosphatase non-receptor type 12 (Homo sapiens, UniProt Q05209); experiment: SAR Selectivity Analysis of small molecule inhibitors of PEST using pCAP in a fluorescence assay. [Related pubchem assays (depositor defined):AID1779, AID1784, AID2135]; assay type: functional
[3] = biological target: T1, Tyrosine-protein phosphatase non-receptor type 22; experiment: SAR LYP1 Fluorescent Assay using OMFP substrate for In Vitro dose response studies - Set 3. [Related pubchem assays (depositor defined):AID1779, AID1784, AID2140, AID2686]; assay type: functional
[4] = biological target: T2, Tyrosine-protein phosphatase non-receptor type 7 (Homo sapiens, UniProt P35236); experiment: HePTP (PTPN7) phosphatase inhibitor potency, SAR follow-up, biochemical, set 2 (AID 449736); assay type: functional
T2 sequence (P35236 whole entry): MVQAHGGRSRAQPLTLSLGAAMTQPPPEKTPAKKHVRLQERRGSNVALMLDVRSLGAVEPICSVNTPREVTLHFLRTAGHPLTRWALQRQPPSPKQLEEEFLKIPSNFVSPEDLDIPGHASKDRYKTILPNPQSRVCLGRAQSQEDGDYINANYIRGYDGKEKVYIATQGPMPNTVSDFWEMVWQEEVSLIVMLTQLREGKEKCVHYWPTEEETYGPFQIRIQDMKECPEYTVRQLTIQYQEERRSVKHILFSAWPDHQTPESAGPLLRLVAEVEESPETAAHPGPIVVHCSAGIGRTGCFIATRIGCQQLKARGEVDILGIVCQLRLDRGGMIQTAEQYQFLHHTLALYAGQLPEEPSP

[5] = biological target: T1, Tyrosine-protein phosphatase non-receptor type 22; experiment: LYP (PTPN22) phosphatase inhibitor potency, SAR follow-up, biochemical, pCAP fluorogenic substrate, fluorescence, set 3 (AID 449727); assay type: functional
[6] = biological target: T1, Tyrosine-protein phosphatase non-receptor type 22; experiment: SAR LYP1 Fluorescent Assay using OMFP substrate for In Vitro dose response studies - Set 2. [Related pubchem assays (depositor defined):AID1779, AID1784, AID2140, AID449726, AID488869]; assay type: functional
[7] = biological target: T3, Cannabinoid receptor 2 (Homo sapiens, UniProt P34972); experiment: SAR analysis of antagonists of the Cannabinoid Receptor 2 using an Image-Based Assay - Set 2. [Related pubchem assays (depositor defined):AID1961, AID1965]; assay type: functional
[8] = biological target: G-protein coupled receptor 55 (Homo sapiens, UniProt Q9Y2T6); experiment: SAR analysis of selective Agonists of GPR55 using an Image-Based Assay - Set 2. [Related pubchem assays (depositor defined):AID1961, AID1965]; assay type: functional
[9] = biological target: T3, Cannabinoid receptor 2; experiment: SAR analysis of agonists of the Cannabinoid Receptor 2 using an Image-Based Assay - Set 2. [Related pubchem assays (depositor defined):AID1961, AID1965]; assay type: functional
[10] = biological target: T4, G-protein coupled receptor 35 (Homo sapiens, UniProt Q9HC97); experiment: SAR analysis of Agonists of the GPR35 Receptor using an Image-Based Assay - Set 3. [Related pubchem assays (depositor defined):AID1961, AID1965]; assay type: functional
[11] = biological target: T5, Cannabinoid receptor 1 (Homo sapiens, UniProt P21554); experiment: SAR analysis of antagonists of the Cannabinoid Receptor 1 using an Image-Based Assay - Set 3. [Related pubchem assays (depositor defined):AID1961, AID1965]; assay type: functional
[12] = biological target: T5, Cannabinoid receptor 1; experiment: SAR analysis of agonists of the Cannabinoid Receptor 1 using an Image-Based Assay - Set 3. [Related pubchem assays (depositor defined):AID1961, AID1965]; assay type: functional
[13] = biological target: T4, G-protein coupled receptor 35; experiment: SAR analysis of Antagonists of the GPR35 Receptor using an Image-Based Assay - Set 4. [Related pubchem assays (depositor defined):[…]]; assay type: functional
[14] = biological target: Troponin, cardiac muscle (Homo sapiens, UniProt P19429+P45379+P63316); experiment: Fluorescence-based biochemical high throughput dose response assay for activators of the calcium sensitivity of cardiac Regulated Thin Filaments (RTF). [Related pubchem assays (depositor defined):AID493008, AID493018, AID504382, AID504383]; assay type: protein-complex assay
[15] = Luminescence Cell-Based Dose Response HTS to Identify Inhibitors of Luciferase Translation or Activity in H4-C Neuroglioblastoma Cells. [Related pubchem assays: 1813 (Primary HTS), 1827 (Project Summary)]; assay type: functional
[16] = Luminescence Cell-Based Dose Response HTS to Identify Activators of Luciferase Translation or Activity in H4-C Neuroglioblastoma Cells. [Related pubchem assays: 1829 (Project Summary), 1814 (Primary HTS)]; assay type: functional
[17] = inhibitors of firefly luciferase expression or activity, dose response, H4 neuroglioma cells, luminescence (AID 1990); assay type: functional, cell-based
[18] = Luminescence Cell-Based Dose Retest to Confirm Activators of 5'UTR Stem-Loop Driven Alpha-Synuclein mRNA Translation in H4 Neuroglioblastoma Cells. [Related pubchem assays (depositor defined):AID1813, AID1829]; assay type: functional
[19] = Luminescence Cell-Based Dose Response HTS to Identify Activators of 5'UTR Stem-Loop Driven Prion Protein mRNA Translation in H4-C Neuroglioblastoma Cells. [Related pubchem assays: 1829 (Project Summary), 1814 (Primary HTS)]; assay type: functional
[20] = Luminescence Cell-Based Dose HTS Response to Identify Inhibitors of 5'UTR Stem-Loop Driven Prion Protein mRNA Translation in H4-C Neuroglioblastoma Cells. [Related pubchem assays (depositor defined):AID1814, AID1827]; assay type: functional
[21] = tested on: BJ; experiment: cytotoxicity toward BJ-TERT fibroblasts, dose response, cell-based, RAS-independent, luminescence (AID 1933); assay type: functional; settings: Homo sapiens
[22] = Luminescence Cell-Based Dose Response HTS to Identify Inhibitors of 5'UTR Stem-Loop Driven Prion Protein mRNA Translation in H4 Neuroglioblastoma Cells. [Related pubchem assays: 1827 (Project Summary), 1813 (Primary HTS)]; assay type: functional
[23] = inhibitors of SNCA 5'UTR-driven reporter translation, confirmation, H4 neuroglioma cells, luminescence (AID 1988); assay type: functional, cell-based
[24] = tested on: BJ; experiment: cells; assay type: functional, cell-based; settings: Homo sapiens
[25] = Luminescence Cell-Based Dose Confirmation HTS to Identify Inhibitors of 5'UTR Stem-Loop Driven Alpha-Synuclein mRNA Translation in H4 Neuroglioblastoma Cells. [Related pubchem assays: 1827 (Project Summary), 1813 (Primary HTS)]; assay type: functional
[26] = tested on: BJ; experiment: cytotoxicity toward BJ-TERT-LT-ST fibroblasts, dose response, cell-based, RAS-independent, luminescence (AID 1935); assay type: functional; settings: Homo sapiens;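 note: BJ fibroblasts immortalized with TERT plus LT and ST oncogenes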
[27] = cytotoxicity toward DRD oncogenic fibroblasts, dose response, cell-based, non-viral oncogenic, luminescence (AID 1934); assay type: functional; settings: Homo sapiens
[28] = cytotoxicity in HEK-293T cells, dose response, cytotoxicity control for TCR NF-kB inhibitor project, luminescence, T-cell screen hits (AID 489026); assay type: functional, cell-based;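 note: cells exposed to compound about 14 hours before the viability readout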
[29] = biological target: Transthyretin (Homo sapiens, UniProt P02766); experiment: Luminescence-based cell-based high throughput dose response assay to identify activators of Transthyretin (TTR) transcription.; assay type: functional
[30] = biological target: DNA damage-inducible transcript 3 protein (Mus musculus, UniProt P35639); assay type: functional, Cricetulus griseus
[31] = biological target: X-box-binding protein 1 (Homo sapiens, UniProt P17861); assay type: functional, Cricetulus griseus;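 note: confirmatory dose-response counter-screen serving a CHOP assay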
Sequence of X-box-binding protein 1 (P17861 whole entry): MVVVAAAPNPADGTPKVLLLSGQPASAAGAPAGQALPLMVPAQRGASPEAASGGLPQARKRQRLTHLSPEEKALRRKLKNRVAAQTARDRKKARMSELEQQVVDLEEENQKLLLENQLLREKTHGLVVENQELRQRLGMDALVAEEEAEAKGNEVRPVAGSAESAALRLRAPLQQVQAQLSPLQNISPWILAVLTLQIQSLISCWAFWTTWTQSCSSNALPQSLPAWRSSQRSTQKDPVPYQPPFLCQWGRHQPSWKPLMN

T5 sequence (P21554 whole entry): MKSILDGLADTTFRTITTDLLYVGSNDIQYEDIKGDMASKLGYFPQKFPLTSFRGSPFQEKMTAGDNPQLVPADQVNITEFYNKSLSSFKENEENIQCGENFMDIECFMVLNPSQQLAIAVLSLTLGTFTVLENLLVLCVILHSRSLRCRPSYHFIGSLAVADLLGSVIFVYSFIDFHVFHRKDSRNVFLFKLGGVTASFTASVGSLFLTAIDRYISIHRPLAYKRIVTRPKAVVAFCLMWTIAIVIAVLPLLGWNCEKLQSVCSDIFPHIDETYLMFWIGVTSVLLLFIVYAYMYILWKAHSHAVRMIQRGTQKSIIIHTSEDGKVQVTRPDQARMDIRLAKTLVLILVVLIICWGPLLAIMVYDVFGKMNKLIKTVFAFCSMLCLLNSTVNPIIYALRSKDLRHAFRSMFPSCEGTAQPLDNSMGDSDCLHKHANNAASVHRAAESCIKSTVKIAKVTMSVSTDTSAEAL
T4 sequence (Q9HC97 whole entry): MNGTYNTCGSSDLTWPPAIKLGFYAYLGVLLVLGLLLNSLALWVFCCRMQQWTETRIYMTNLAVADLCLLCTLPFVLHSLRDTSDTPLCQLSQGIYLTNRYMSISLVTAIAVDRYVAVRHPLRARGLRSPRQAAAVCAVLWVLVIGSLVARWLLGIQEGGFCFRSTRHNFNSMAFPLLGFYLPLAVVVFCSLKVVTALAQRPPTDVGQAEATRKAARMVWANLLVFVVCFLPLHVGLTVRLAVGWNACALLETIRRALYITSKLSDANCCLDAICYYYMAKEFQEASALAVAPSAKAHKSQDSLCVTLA
T3 sequence (P34972 whole entry): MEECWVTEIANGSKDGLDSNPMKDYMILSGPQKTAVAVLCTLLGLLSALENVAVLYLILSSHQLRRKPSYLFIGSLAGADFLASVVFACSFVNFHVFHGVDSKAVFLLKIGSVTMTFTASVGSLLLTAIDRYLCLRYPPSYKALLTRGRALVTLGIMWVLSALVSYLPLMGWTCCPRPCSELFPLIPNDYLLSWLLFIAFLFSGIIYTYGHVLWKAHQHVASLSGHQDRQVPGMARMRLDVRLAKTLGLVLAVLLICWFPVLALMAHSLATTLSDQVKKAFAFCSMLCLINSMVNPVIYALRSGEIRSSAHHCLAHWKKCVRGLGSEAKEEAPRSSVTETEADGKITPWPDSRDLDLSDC
Sequence of DNA damage-inducible transcript 3 protein (P35639 whole entry): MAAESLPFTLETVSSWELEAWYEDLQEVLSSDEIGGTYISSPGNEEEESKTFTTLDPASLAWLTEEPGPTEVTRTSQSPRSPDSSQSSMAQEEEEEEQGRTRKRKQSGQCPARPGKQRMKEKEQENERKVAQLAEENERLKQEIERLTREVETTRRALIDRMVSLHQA
Sequence of G-protein coupled receptor 55 (Q9Y2T6 whole entry): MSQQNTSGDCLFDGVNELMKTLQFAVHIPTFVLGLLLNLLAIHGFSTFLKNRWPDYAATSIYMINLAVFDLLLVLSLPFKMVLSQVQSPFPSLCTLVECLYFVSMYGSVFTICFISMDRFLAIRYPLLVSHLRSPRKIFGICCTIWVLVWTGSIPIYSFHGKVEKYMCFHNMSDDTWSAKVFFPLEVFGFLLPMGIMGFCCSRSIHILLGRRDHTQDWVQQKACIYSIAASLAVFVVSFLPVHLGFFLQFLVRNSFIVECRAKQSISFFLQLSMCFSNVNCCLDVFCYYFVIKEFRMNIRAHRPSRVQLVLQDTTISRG
Sequence of Tyrosine-protein phosphatase non-receptor type 12 (Q05209 whole entry): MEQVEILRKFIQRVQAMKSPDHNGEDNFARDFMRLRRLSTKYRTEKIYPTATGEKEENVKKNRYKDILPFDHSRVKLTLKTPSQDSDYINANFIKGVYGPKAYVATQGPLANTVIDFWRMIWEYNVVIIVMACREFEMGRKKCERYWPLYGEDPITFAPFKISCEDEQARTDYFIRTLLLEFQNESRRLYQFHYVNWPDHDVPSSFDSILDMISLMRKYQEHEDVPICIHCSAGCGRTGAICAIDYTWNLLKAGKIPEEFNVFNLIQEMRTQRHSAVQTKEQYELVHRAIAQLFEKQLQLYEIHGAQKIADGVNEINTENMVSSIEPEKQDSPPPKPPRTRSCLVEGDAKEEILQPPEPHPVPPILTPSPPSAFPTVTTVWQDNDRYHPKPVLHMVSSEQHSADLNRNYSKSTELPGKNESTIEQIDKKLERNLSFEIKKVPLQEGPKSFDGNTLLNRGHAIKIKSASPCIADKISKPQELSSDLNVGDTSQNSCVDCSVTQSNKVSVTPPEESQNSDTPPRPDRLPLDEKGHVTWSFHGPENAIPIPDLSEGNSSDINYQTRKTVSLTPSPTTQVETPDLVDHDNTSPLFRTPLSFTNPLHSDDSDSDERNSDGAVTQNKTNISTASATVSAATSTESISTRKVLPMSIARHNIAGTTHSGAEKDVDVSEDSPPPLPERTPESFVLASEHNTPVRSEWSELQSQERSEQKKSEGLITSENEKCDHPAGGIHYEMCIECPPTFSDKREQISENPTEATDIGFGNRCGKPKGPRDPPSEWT

COc1ccccc1NS(=O)(=O)c1cccc(C(=O)NN=Cc2ccc(OCC(=O)O)cc2)c1
IC50 [1]: > 100 µM (inactive) | IC50 [2]: > 100 µM (inactive) | IC50 [3]: > 100 µM (inactive) | IC50 [4]: > 100 µM (inactive) | IC50 [5]: > 100 µM (inactive) | IC50 [6]: > 100 µM (inactive)

Cc1ccccc1N1CCN(C(=O)c2cc(S(=O)(=O)N3CCCCC3)ccc2N2CCCC2)CC1
IC50 [7]: > 32 µM (inactive) | EC50 [8]: > 32 µM (inactive) | EC50 [9]: > 32 µM (inactive) | EC50 [10]: > 32 µM (inactive) | IC50 [11]: > 32 µM (inactive) | EC50 [12]: > 32 µM (inactive) | IC50 [13]: > 32 µM (inactive)

O=[n+]1c2c(n([O-])c3ccccc31)CCC2
EC50 [14]: > 71.5 µM (inactive)

CCOC(=O)Nc1nc(-c2ccccc2)c(C(=O)c2ccc(Cl)cc2)s1
EC50 [15]: 2.32 µM (active) | EC50 [16]: 2.32 µM (inconclusive) | EC50 [17]: 5.3 µM (active) | EC50 [18]: 1.76 µM (inconclusive) | EC50 [19]: 1.95 µM (inconclusive) | EC50 [20]: 1.95 µM (active) | EC50 [21]: 1.26 µM (inconclusive) | EC50 [22]: 3.25 µM (active) | EC50 [23]: 0.108 µM (active) | EC50 [24]: 15.6 µM (active) | EC50 [25]: 1.76 µM (active) | EC50 [26]: 1.45 µM (inconclusive) | EC50 [27]: 1.28 µM (active) | IC50 [28]: > 80 µM (inactive) | EC50 [29]: > 167 µM (inactive)

COc1cccc(Nc2ncnc3c2cnn3-c2cccc(C)c2)c1
Absolute IC50 (CHOP) [30]: 10 µM | Absolute IC50 (XBP1) [31]: 10 µM
